Assay results published in patent US20160355530A1, “HEPATITIS C INHIBITORS AND USES THEREOF” (AbbVie Inc., priority 2010, published 2016).
Where two headings read alike, the source gives them in different places.

Assays:
[1] = system: HCV 1a-H77 subgenomic replicon; assay: microbe, parasite or virus in culture; format: cell-based, HCV genotype 1a; conditions: Hepatitis C virus, stable replicon
[2] = target: T1, HCV NS5B polymerase 1b BK strain (Hepatitis C virus genotype 1b, UniProt P26663); assay: HCV NS5B polymerase enzymatic inhibition assay, strain 1b BK; format: biochemical; conditions: enzyme, strain 1b BK; read-out: HCV Polymerase Strain 1b BK IC50
T1 construct: six-histidine tag; made in house; host or cells: E. coli
Procedure, shortened: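 E. coli-expressed NS5B (residues 1-570, His-tagged) transcribed a 2.1 kb HCV 1b negative-strand 3′-end RNA template (5 nM) with 20 μM CTP, 20 μM ATP and 0.284 μM [3H]UTP for 3 h at 30° C. Spermine-precipitated RNA was filter-captured and counted by scintillation; IC50 from nonlinear regression.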

[3] = system: chimeric replicon with 2a-J6CF-derived NS5B; assay: microbe, parasite or virus in culture; format: cell-based, HCV genotype 2a; conditions: Hepatitis C virus, read-out: 2a chimera 5% FBS EC50
[4] = system: chimeric replicon with genotype 4a NS5B; assay: microbe, parasite or virus in culture; format: cell-based, HCV genotype 4a; conditions: Hepatitis C virus, read-out: 4a chimera 5% FBS EC50
[5] = system: chimeric replicon with genotype 3a NS5B; assay: microbe, parasite or virus in culture; format: cell-based, HCV genotype 3a; conditions: Hepatitis C virus, read-out: 3a chimera 5% FBS EC50
[6] = system: chimeric replicon with genotype 2b NS5B; assay: microbe, parasite or virus in culture; format: cell-based, HCV genotype 2b; conditions: Hepatitis C virus, read-out: 2b chimera 5% FBS EC50
[7] = target: T2, HCV NS5B polymerase 1b Rice (Hepatitis C virus genotype 1b, UniProt Q9WMX2); assay: HCV NS5B polymerase enzymatic inhibition assay, strain 1b Rice; format: biochemical, HCV genotype 1b; conditions: enzyme
T2 construct: six-histidine tag; made in house; host or cells: E. coli
Experimental: Purified HCV NS5B polymerase enzymes were used for polymerase inhibition assays. All recombinant HCV polymerases contained the first 570 amino acids of the 591 amino acid native protein sequence and a six-histidine tag at the N-terminus or C-terminus to facilitate purification by affinity chromatography. The DNA nucleotide sequence for the HCV polymerase 1b BK strain was codon optimized for expression in E. coli. A synthetic gene was prepared from a series of overlapping oligonucleotides that were filled in using a DNA polymerase and amplified by PCR. The patient isolate HCV polymerases were cloned by RT-PCR methods using HCV RNA extracted from the serum of infected subjects obtained from ProMedDx and BioCollections (genotypes 2a, 2b, 3a, and 4a). Laboratory strains were cloned from plasmid DNA (1a-H77 or 1a-H77-C316Y) or from existing replicon cells (1b Rice). In all cases the amplified DNA was cloned into a protein expression vector (typically a pET vector from Novagen) and then multiple clones were sequenced to identify one whose NS5B sequence agreed with the population sequence. This sequence-confirmed clone was then transfected into E. coli for protein expression and purification. E. coli cultures were grown to a maximum optical density (OD) of 2-3 and then induced with 0.4 mM isopropyl beta-D-thiogalactopyranoside (IPTG) and grown for 20 hours at 20° C.
Proteins were purified using nickel affinity chromatography, and additional column steps were added including, ion exchange, size exclusion, hydrophobic ion, and poly-U affinity chromatography, as needed, depending on the sample being purified. The template RNA used in the polymerase enzymatic assay was a 2.1 kb construct that corresponds to the 3′-end of an HCV genotype 1b negative strand RNA.
The reaction was initiated by the addition of 20 μM CTP, 20 μM ATP, 0.284 μM (0.5 μCi) of 5,6-[^3H] UTP, 5 nM template RNA and 0.1 U/μL RNase inhibitor (RNasin, Promega), and allowed to proceed for three hours at 30° C. The final reaction volume was 50 μL. The reaction was terminated by the addition of 50 uL of 4 mM spermine in 10 mM Tris-HCl, pH 7.5, 1 mM EDTA. The quenched reaction was allowed to incubate for at least 15 minutes at room temperature, and then the precipitated RNA was captured by filtration through a glass fiber filter (GF/B, Millipore) in a 96 well format. The filter plate was washed five times with 200 μL of 2 mM spermine, 10 mM Tris-HCl, pH 8.0, 1 mM EDTA, and two times with ethanol. After drying thoroughly in air, 30 μL of Microscint-20 scintillation cocktail (Perkin Elmer) was added to each well, and the retained cpm were determined by scintillation counting. IC50 values were determined by nonlinear regression.
% Inhibition=100*[[I]/([I]+[IC50])] equation 1
V=kcat[S]/2(Km+[S])*(sqrt((IC50+I−E)̂2+(4*IC50*E))−(IC50+I−E)) equation 2

[8] = system: HCV 1a-H77 transient subgenomic replicon in Huh-7 derived cell line; assay: microbe, parasite or virus in culture; format: cell-based, HCV genotype 1a; conditions: Hepatitis C virus, Huh-7; transient replicon, 5% FBS; read-out: Transient Replicon 1a H77 5% FBS EC50
Procedure, shortened: (§1)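 Subgenomic replicon RNA (no Neo gene) electroporated into Huh-7-derived cells, plated at 5×10^3 cells/well; a 4 h plate gauged transfection efficiency. Cells exposed to 3-fold compound dilutions (0.5% DMSO) for 4 days at 37° C, then lysed for luciferase readout; EC50 calculated.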

[9] = system: HCV 1a-H77-C316Y transient subgenomic replicon in Huh-7 derived cell line; assay: microbe, parasite or virus in culture; format: cell-based, HCV genotype 1a; conditions: for EC50: Hepatitis C virus, Huh-7, read-out: Transient Replicon 1a H77-C316Y 5% FBS EC50; for Transient Replicon Fold Resistance C316Y/1a: ratio of transient replicon EC50s, C316Y / 1a H77
Procedure, shortened: as §1

[10] = system: HCV 1a-H77 C316Y mutant subgenomic replicon; assay: Stable replicon cell culture assay (luciferase), 1a-H77-C316Y mutant; format: cell-based, HCV genotype 1a; conditions: for EC50: Hepatitis C virus, read-out: Stable Replicon 1a H77-C316Y 5% FBS EC50; for Stable Replicon Fold Resistance C316Y/1a: ratio of stable replicon EC50s, C316Y / 1a H77
[11] = 5% FBS, absence of human plasma, read-out: Stable Replicon 1a H77 5% FBS EC50
[12] = strain 1a H77, 5% FBS + 40% human plasma, read-out: 1a H77 5% FBS + 40% Human Plasma EC50
[13] = strain 1a H77, 5% FBS, no human plasma, read-out: 1a H77 5% FBS EC50
[14] = strain 1a H77, 5% FBS, read-out: 1a H77 5% FBS EC50

T1 sequence (P26663 2420-2989): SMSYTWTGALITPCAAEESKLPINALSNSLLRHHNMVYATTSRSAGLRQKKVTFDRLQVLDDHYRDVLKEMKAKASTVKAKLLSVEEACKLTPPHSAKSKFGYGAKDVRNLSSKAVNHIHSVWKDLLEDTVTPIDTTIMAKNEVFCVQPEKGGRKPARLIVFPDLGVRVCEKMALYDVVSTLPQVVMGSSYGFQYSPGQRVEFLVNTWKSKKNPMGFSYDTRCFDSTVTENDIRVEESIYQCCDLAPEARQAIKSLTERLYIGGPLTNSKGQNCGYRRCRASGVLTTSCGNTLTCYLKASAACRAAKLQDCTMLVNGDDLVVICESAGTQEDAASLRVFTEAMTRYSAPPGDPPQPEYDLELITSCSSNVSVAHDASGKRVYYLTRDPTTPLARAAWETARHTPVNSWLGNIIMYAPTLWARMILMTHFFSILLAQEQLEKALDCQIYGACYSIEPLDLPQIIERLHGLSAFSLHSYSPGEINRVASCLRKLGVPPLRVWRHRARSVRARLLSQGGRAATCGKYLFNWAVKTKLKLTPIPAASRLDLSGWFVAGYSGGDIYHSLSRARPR

SMILES | EC50 [1, 11] [nM] | EC50 [1, 12] [nM] | EC50 [1, 13] [nM] | EC50 [1, 14] [nM] | IC50 [2] [nM] | EC50 [3] [nM] | EC50 [4] [nM] | EC50 [5] [nM] | EC50 [6] [nM] | IC50 [7] [nM] | EC50 [8] [nM] | EC50 [9] [nM] | Transient Replicon Fold Resistance C316Y/1a [9] [fold] | EC50 [10] [nM] | Stable Replicon Fold Resistance C316Y/1a [10] [fold]
CS(=O)(=O)N(CCO)c1cc2oc(-c3ccc(F)cc3)c(-c3ncc[nH]3)c2cc1C1CC1 [Example 109, N-[5-cyclopropyl-2-(4-fluorophenyl)-3-(1H-imidazol-2-yl)-1-benzofuran-6-yl]-N-(2-hydroxyethyl)methanesulfonamide] | 19.8 | 420 | 19.8 | 19.8 | 61.7 | 115 | 166 | 6.8 | 120 | 16.9 | 38 | 1300 | 34 | 467 | 23.6
CS(=O)(=O)N(CCO)c1cc2oc(-c3ccc(F)cc3)c(C3=NOCCN3)c2cc1C1CC1 [Example 136, N-[5-cyclopropyl-3-(5,6-dihydro-4H-1,2,4-oxadiazin-3-yl)-2-(4-fluorophenyl)-1-benzofuran-6-yl]-N-(2-hydroxyethyl)methanesulfonamide] | 26.6 | 347 | 26.6 | 26.6 | 200 | 204 | 291 | 42 | 426 | 57 | 32.4 | 679 | 21 | 561 | 42.0
CCCC/C=C/c1ccc(-c2oc3cc(N(CCCCS(C)(=O)=O)S(C)(=O)=O)c(C4CC4)cc3c2-c2ncc[nH]2)cc1 [Example 168, N-[5-cyclopropyl-2-{4-[(1E)-hex-1-en-1-yl]phenyl}-3-(1H-imidazol-2-yl)-1-benzofuran-6-yl]-N-[4-(methylsulfonyl)butyl]methanesulfonamide] | 1.8 | 18.4 | 1.8 | 1.8 | 39.2 | 6 | 14.4 | 12.7 | 13.3 | 4.9 | 0.6 | 14.4 | 24 | 17.6 | 9.72
CS(=O)(=O)CCCCN(c1cc2oc(-c3ccc(Nc4ccccc4)cc3)c(-c3ncc[nH]3)c2cc1C1CC1)S(C)(=O)=O [Example 169, N-[2-(4-anilinophenyl)-5-cyclopropyl-3-(1H-imidazol-2-yl)-1-benzofuran-6-yl]-N-[4-(methylsulfonyl)butyl]methanesulfonamide] | 2.1 | 14.8 | 2.1 | 2.14 | 39.1 | 16.9 | 4.3 | 15 | 12.3 | 9.4 | 0.6 | 4.1 | 6 | 11.4 | 5.33
